Laboratory results taken from patent US8691813B2, “Indole and benzoxazine derivatives as modulators of metabotropic glutamate receptors” (Janssen Pharmaceuticals, Inc., priority 2008, dated 2014).

Columns and labels:
human mGluR2 = target: T1, human mGluR2 (Homo sapiens, UniProt Q14416); test: [35S]GTPγS binding assay (PAM assay) using membranes from CHO cells transfected with the human mGluR2 receptor; type: biochemical; conditions: in presence of glutamate at predetermined EC25 concentration, membranes containing human mGluR2, averages of duplicate values of 11-concentration response curves; for EC50: read-out: GTPγS -hR2 PAM pEC50 (converted)
T1 construct: expressed in transfected cells; host or cells: CHO cells (membrane preparation)
T1 sequence (Q14416 19-872): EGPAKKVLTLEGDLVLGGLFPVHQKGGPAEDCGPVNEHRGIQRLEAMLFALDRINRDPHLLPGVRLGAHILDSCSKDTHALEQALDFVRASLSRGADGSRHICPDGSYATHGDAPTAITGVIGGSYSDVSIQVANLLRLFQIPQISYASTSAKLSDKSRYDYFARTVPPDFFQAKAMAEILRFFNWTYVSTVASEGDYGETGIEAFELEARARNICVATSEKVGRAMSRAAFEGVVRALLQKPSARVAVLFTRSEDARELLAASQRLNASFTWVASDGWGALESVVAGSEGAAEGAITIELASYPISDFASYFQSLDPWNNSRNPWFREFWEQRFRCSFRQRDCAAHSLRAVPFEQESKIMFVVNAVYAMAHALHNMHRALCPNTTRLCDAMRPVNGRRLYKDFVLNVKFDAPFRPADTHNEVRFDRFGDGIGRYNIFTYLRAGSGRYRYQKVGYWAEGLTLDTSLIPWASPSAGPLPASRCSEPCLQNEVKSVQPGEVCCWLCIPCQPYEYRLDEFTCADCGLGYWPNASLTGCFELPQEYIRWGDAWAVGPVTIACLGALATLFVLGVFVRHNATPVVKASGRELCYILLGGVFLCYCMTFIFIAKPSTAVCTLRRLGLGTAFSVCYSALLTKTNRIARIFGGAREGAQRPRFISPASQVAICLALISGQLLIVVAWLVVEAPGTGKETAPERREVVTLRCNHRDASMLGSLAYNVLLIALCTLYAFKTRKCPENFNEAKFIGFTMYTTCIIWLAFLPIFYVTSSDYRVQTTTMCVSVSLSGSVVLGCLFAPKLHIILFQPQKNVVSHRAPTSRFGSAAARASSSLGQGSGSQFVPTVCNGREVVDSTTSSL
Experimental: The [^35S]GTPγS binding assay is a functional membrane-based assay used to study G-protein coupled receptor (GPCR) function whereby incorporation of a non-hydrolysable form of GTP, [^35S]GTPγS (guanosine 5′-triphosphate, labelled with […] ^35S), is measured.
CHO-cells were cultured to pre-confluence and stimulated with 5 mM butyrate for 24 hs, prior to washing in PBS (phosphate-buffered saline), and then collection by scraping in homogenisation buffer (50 mM Tris-HCl buffer, pH 7.4, 4° C.). Cell lysates were homogenized briefly (15 s) using an ultra-turrax homogenizer. The homogenate was centrifuged at 23 500×g for 10 min. and the supernatant discarded. The pellet was resuspended in 5 mM Tris-HCl, pH 7.4 and centrifuged again (30 000×g, 20 min., 4° C.). The final pellet was resuspended in 50 mM HEPES, pH 7.4 and stored at −80° C. in appropriate aliquots before use. Protein concentration was determined by the Bradford method (Bio-Rad, USA) with bovine serum albumin as standard.
Measurement of mGluR2 positive allosteric modulatory activity of test compounds in membranes containing human mGluR2 was performed using frozen membranes that were thawed and briefly homogenised prior to pre-incubation in 96-well microplates (15 μg/assay well, 30 minutes, 30° C.) in assay buffer (50 mM HEPES pH 7.4, 100 mM NaCl, 3 mM MgCl2, 50 μM GDP, 10 μg/ml saponin,) with increasing concentrations of positive allosteric modulator (from 0.3 nM to 50 μM) and either a minimal pre-determined concentration of glutamate (PAM assay), or no added glutamate. […] After addition of [^35S]GTPγS (0.1 nM, f.c.) to achieve a total reaction volume of 200 μl, microplates were shaken briefly and further incubated to allow [^35S]GTPγS incorporation on activation (30 minutes, 30° C.). The reaction was stopped by rapid vacuum filtration over glass-fibre filter plates (Unifilter 96-well GF/B filter plates, Perkin-Elmer, Downers Grove, USA) microplate using a 96-well plate cell harvester (Filtermate, Perkin-Elmer, USA), and then by washing three times with 300 μl of ice-cold wash buffer (Na2PO4.2H2O 10 mM, NaH2PO4.H2O 10 mM, pH=7.4). Filters were then air-dried, and 40 μl of liquid scintillation cocktail (Microscint-O) was added to each well, and membrane-bound [^35S]GTPγS was measured in a 96-well scintillation plate reader (Top-Count, Perkin-Elmer, USA). Non-specific [^35S]GTPγS binding is determined in the presence of cold 10 μM GTP. Each curve was performed at least once using duplicate sample per data point and at 11 concentrations.
The concentration-response curves of representative compounds of the present invention in the presence of added EC25 of mGluR2 agonist glutamate to determine positive allosteric modulation (PAM), were generated using the Prism GraphPad software (Graph Pad Inc, San Diego, USA).

| EC50 (human mGluR2) [nM] | melting point [°C] | GTPγS -hR2 PAM pEC50 (human mGluR2) | Compound |
| --- | --- | --- | --- |
| 245 | – | – | N#Cc1c(-c2ccc3c(ccn3[C@H]3CC[C@H](O)CC3)c2)ccn2c(CC(F)(F)F)cnc12 [Compound 16] |
| 129 | 262.2 | – | C[C@]1(O)CC[C@H](n2ccc3cc(-c4ccn5c(CC(F)(F)F)cnc5c4Cl)ccc32)CC1 [Compound 4, trans-4-[5-[8-Chloro-3-(2,2,2-trifluoroethyl)-imidazo[1,2-a]pyridin-7-yl]-1H-indol-1-yl-]-1-methyl-cyclohexanol] |
| 309 | 138.6 | – | C[C@]1(O)CC[C@H](n2ccc3cc(-c4ccn5c(CC(F)(F)F)cnc5c4C#N)ccc32)CC1 [Compound 21] |
| 468 | – | – | FC(F)(F)Cc1cnc2c(Cl)c(-c3ccc4c(ccn4-c4ccccn4)c3)ccn12 [Compound 24] |
| 191 | – | – | N#Cc1c(-c2ccc3c(c2)OCCN3[C@H]2CC[C@H](O)CC2)ccn2c(CC(F)(F)F)cnc12 [Compound 19] |
| 200 | 197.3 | – | N#Cc1c(-c2ccc3c(ccn3-c3ccc(F)cc3)c2)ccn2c(CC(F)(F)F)cnc12 [Compound 29] |
| 1070 | – | – | CC(C)(O)Cn1ccc2cc(-c3ccn4c(CC(F)(F)F)cnc4c3C#N)ccc21 [Compound 9] |
| 501 | 171.1 | – | C[C@]1(O)CC[C@@H](n2ccc3cc(-c4ccn5c(CC(F)(F)F)cnc5c4C#N)ccc32)CC1 [Compound 22] |
| 575 | – | – | CN1CCOc2cc(-c3ccn4c(CC(F)(F)F)cnc4c3C#N)ccc21 [Compound 15] |
| 33.9 | – | – | Cc1cc(Cn2ccc3cc(-c4ccn5c(CC(F)(F)F)cnc5c4C#N)ccc32)ccn1 [Compound 30] |
| – | 232.9 | – | N#Cc1c(-c2ccc3c(ccn3C3CCOCC3)c2)ccn2c(CC(F)(F)F)cnc12 [Compound 6] |
| 117 | – | – | N#Cc1c(-c2ccc3c(ccn3Cc3ccncc3)c2)ccn2c(CC(F)(F)F)cnc12 [Compound 27] |
| 813 | – | – | CC(C)OCCn1ccc2cc(-c3ccn4c(CC(F)(F)F)cnc4c3C#N)ccc21 [Compound 14] |
| 380 | – | – | N#Cc1c(-c2cc(Cl)c3c(ccn3C3CCOCC3)c2)ccn2c(CC(F)(F)F)cnc12 [Compound 1, 7-[7-Chloro-1-(tetrahydro-pyran-4-yl)-1H-indol-5-yl]-3-(2,2,2-trifluoroethyl) imidazo[1,2-a]pyridine-8-carbonitrile] |
| – | – | 6.64 | Cn1ccc2cc(-c3ccn4c(CC(F)(F)F)cnc4c3C#N)ccc21 [Compound 7] |
| – | 172 | – | Cn1ccc2cc(-c3ccn4c(CC(F)(F)F)cnc4c3C#N)cc(Cl)c21 [Compound 10] |
| 112 | – | – | OC1CCC(N2CCOc3cc(-c4ccn5c(CC(F)(F)F)cnc5c4Cl)ccc32)CC1 (mixture of isomers) [Compound 5, 4-[7-[8-Chloro-3-(2,2,2-trifluoro-ethyl)-imidazo[1,2-a]pyridin-7-yl]-2,3-dihydro-4H-1,4-benzoxazin-4-yl]-cyclohexanol] |
| 117 | – | – | N#Cc1c(-c2ccc3c(c2)OCCN3CC2CC2)ccn2c(CC(F)(F)F)cnc12 [Compound 12] |
| – | 182.8 | 7.07 | FC(F)(F)Cc1cnc2c(Cl)c(-c3cc(Cl)c4[nH]ccc4c3)ccn12 [Compound 2, 8-Chloro-7-(7-chloro-M-indol-5-yl)-3-(2,2,2-trifluoroethyl)-imidazo[1,2-a]-pyridine] |
| 331 | – | – | FC(F)(F)Cc1cnc2c(Cl)c(-c3ccc4c(ccn4-c4ncccn4)c3)ccn12 [Compound 25, 8-Chloro-7-(1-pyrimidin-2-yl-1H-indol-5-yl)-3-(2,2,2-trifluoro-ethyl)-imidazo[1,2-a]pyridine] |
| 166 | 131.6 | – | O[C@H]1CC[C@H](n2ccc3cc(-c4ccn5c(CC(F)(F)F)cnc5c4Cl)ccc32)CC1 [Compound 3] |
| – | 151.3 | 6.60 | FC(F)(F)Cc1cnc2c(Cl)c(-c3cc(Cl)c4c(ccn4CC4CC4)c3)ccn12 [Compound 18] |
| – | 175.3 | 6.96 | N#Cc1c(-c2cc(Cl)c3c(ccn3CC3CC3)c2)ccn2c(CC(F)(F)F)cnc12 [Compound 11] |
| – | 117.9 | – | N#Cc1c(-c2ccc3c(ccn3CC3CC3)c2)ccn2c(CC(F)(F)F)cnc12 [Compound 13] |
| 219 | – | – | N#Cc1c(-c2ccc3c(ccn3-c3ccccc3)c2)ccn2c(CC(F)(F)F)cnc12 [Compound 28] |
